Measured values published in article PMC11764660, “Self-Assembled Peptide Hydrogels PPI45 and PPI47: Novel Drug Candidates for Staphylococcus aureus Infection Treatment” (Gels, 2025).
Values after ≈ are worked out from the molar mass of the structure shown. Positions of bridges follow the written chain, without caps; N, C: chain ends. Residues, ends and D or L forms follow the SMILES beside them.

Legend:
[1] = test system: Streptococcus agalactiae ATCC 13813; assay: MBC assay; type: cell-based; conditions: colony counting, 99.9% criterion
Text: (§1) Microbial cultures are quantified at concentrations surpassing the MIC to ascertain the number of viable bacterial cells. The lowest concentration at which the number of colonies is less than 99.9% at the time of initial inoculation is defined as MBC, which is capable of killing the bacteria.

[2] = test system: Streptococcus dysgalactiae CVCC 3938; assay: MBC assay; type: cell-based; conditions: colony counting, 99.9% criterion
Text: as §1

[3] = test system: Staphylococcus aureus ATCC 43300; assay: MBC assay; type: cell-based; conditions: colony counting at concentrations surpassing the MIC, 99.9% criterion
Text: as §1

[4] = test system: Pseudomonas aeruginosa ATCC 10104; assay: MBC assay; type: cell-based; conditions: colony counting, 99.9% criterion
Text: as §1

[5] = test system: Staphylococcus epidermidis ATCC 12228; assay: MBC assay; type: cell-based; conditions: colony counting, 99.9% criterion
Text: as §1

[6] = test system: Escherichia coli ATCC 25922; assay: MBC assay; type: cell-based; conditions: colony counting, 99.9% criterion
Text: as §1

HaCaT cells = assay: Cytotoxicity analysis (CCK-8); type: cell-based, human; conditions: 2–256 µg/mL, 24 h, CCK-8, absorbance 450 nm, six replicates
Description: HaCaT cells, at a density of 2.5 × 10^5 cells/mL, were inoculated into 96-well plates and incubated in a cell culture incubator for 24 h. Following the removal of the medium, an equal volume of peptide solution, ranging in concentration from 2 to 256 µg/mL, was added, and the cells were incubated for an additional 24 h. The medium was subsequently removed, and the wells were washed three times with saline. CCK-8 solution ([…], 100 µL per well) was then added, and the plates were incubated for 2 h. Absorbance was measured at 450 nm using a microplate reader. Saline served as the negative control, while the medium without cells was used as the blank control. Six replicates were set for each concentration. Cell survival is calculated as follows: (As − Ab)/(Ac − Ab) × 100%.
As: Absorbance value of the experimental group (medium containing cells, sample, CCK-8)
Ac: Absorbance value of the control group (medium containing cells, no sample, CCK-8)
Ab: Absorbance value of the blank group (medium without cells, no sample, CCK-8)

[7] = test system: S. epidermidis ATCC 35984; assay: MBC assay; type: cell-based, Staphylococcus epidermidis; conditions: colony counting, 99.9% criterion
Text: as §1

[8] = test system: Streptococcus agalactiae ATCC 13813; assay: MIC assay; type: cell-based; conditions: 96-well plate, 10^5 CFU/mL, 37 °C, 12 to 18 h
Description: (§2) A series of concentration gradients of peptide solution (10, 20, 40, 80, 160, 320, 640, and 1280 µg/mL) and the bacterial suspension (10^5 CFU/mL) were added to a 96-well plate at a volume ratio of 10 µL: 90 µL. Subsequently, the plate was incubated at 37 °C for 12 to 18 h. The concentration in the final well of the 96-well plate where no bacterial growth is evident corresponds to the MIC value.

[9] = test system: Streptococcus dysgalactiae CVCC 3938; assay: MIC assay; type: cell-based; conditions: 96-well plate, 10^5 CFU/mL, 37 °C, 12 to 18 h
Description: as §2

[10] = test system: Staphylococcus aureus ATCC 43300; assay: MIC assay; type: cell-based; conditions: 96-well plate, 10^5 CFU/mL, 37 °C, 12 to 18 h
Description: as §2

[11] = test system: Pseudomonas aeruginosa ATCC 10104; assay: MIC assay; type: cell-based; conditions: 96-well plate, 10^5 CFU/mL, 37 °C, 12 to 18 h
Description: as §2

[12] = test system: Staphylococcus epidermidis ATCC 12228; assay: MIC assay; type: cell-based; conditions: 96-well plate, 10^5 CFU/mL, 37 °C, 12 to 18 h
Description: as §2

[13] = test system: Escherichia coli ATCC 25922; assay: MIC assay; type: cell-based; conditions: 96-well plate, 10^5 CFU/mL, 37 °C, 12 to 18 h
Description: as §2

[14] = test system: S. epidermidis ATCC 35984; assay: MIC assay; type: cell-based, Staphylococcus epidermidis; conditions: 96-well plate, 10^5 CFU/mL, 37 °C, 12 to 18 h
Description: as §2

mouse erythrocytes = assay: Hemolytic activity; type: cell-based; conditions: 1 h, 37 °C, absorbance 540 nm
Description: Equal volumes of the erythrocyte suspension and the peptide dilutions were combined and incubated for one hour at 37 °C. Subsequently, the mixture was centrifuged at 2000 rpm for 5 min, and the supernatant was transferred to a 96-well plate. The absorbance was then measured at 540 nm. Triton X-100 and physiological saline were employed as positive and negative controls, respectively. The percentage of hemolysis was calculated via the following formula:Hemolysis (%) = [(Apeptide − Asaline)/(A0.1% Triton X-100 − Asaline)] × 100%.

S. aureus ATCC 25923 [15] = assay: MBC assay; type: cell-based, Staphylococcus aureus; conditions: colony counting, 99.9% criterion
Text: as §1

S. aureus CVCC 546 [16] = assay: MBC assay; type: cell-based, Staphylococcus aureus; conditions: colony counting, 99.9% criterion
Text: as §1

S. aureus ATCC 25923 [17] = assay: MIC assay; type: cell-based, Staphylococcus aureus; conditions: 96-well plate, 10^5 CFU/mL, 37 °C, 12 to 18 h
Description: as §2

S. aureus CVCC 546 [18] = assay: MIC assay; type: cell-based, Staphylococcus aureus; conditions: 96-well plate, 10^5 CFU/mL, 37 °C, 12 to 18 h
Description: as §2

[19] = concentration range 20–2560 µg/mL

CC[C@H](C)[C@@H]1NC(=O)[C@H](CO)NC(=O)[C@H](CCCCN)NC(=O)[C@@H]2CSSC[C@@H](C(=O)N[C@@H](Cc3ccc(O)cc3)C(=O)O)NC(=O)[C@H](CCCCN)NC(=O)[C@@H]3CSSC[C@H](NC(=O)[C@H](CCCNC(=N)N)NC(=O)[C@H](CC(C)C)NC(=O)[C@H](CC(=O)O)NC(=O)[C@H](CC(=O)O)NC(=O)[C@H](CCC(=O)O)NC(=O)[C@H](CO)NC(=O)[C@H](Cc4c[nH]c5ccccc45)NC(=O)[C@@H]4CCCN4C(=O)CNC(=O)[C@H](CC(N)=O)NC(=O)[C@@H](NC(=O)CNC(=O)[C@H](Cc4ccccc4)NC(=O)CN)CSSC[C@H](NC(=O)[C@H](Cc4ccc(O)cc4)NC(=O)CNC(=O)CNC(=O)[C@H](CCCCN)NC(=O)[C@H](Cc4ccc(O)cc4)NC(=O)CNC(=O)[C@H](CCCCN)NC1=O)C(=O)N[C@@H](C)C(=O)N[C@@H](CCCCN)C(=O)NCC(=O)NCC(=O)N[C@@H](Cc1ccccc1)C(=O)N[C@@H](CC(C)C)C(=O)N3)C(=O)N[C@@H](Cc1c[nH]cn1)C(=O)N[C@@H](CC(N)=O)C(=O)N[C@@H](Cc1c[nH]cn1)C(=O)N2 [PPI47] (H-GFGCNGPWSEDDLRCHNHCKSIKGYKGGYCAKGGFLCKCY-OH; disulfide 4-30, 15-37, 19-39)
MBC [1]: 0.5 µg/mL (≈ 0.114 µM) | MBC [2]: 4 µg/mL (≈ 0.909 µM) | MBC [3]: 8 µg/mL (≈ 1.82 µM) | MBC [4]: >64 µg/mL | MBC [5]: 8 µg/mL (≈ 1.82 µM) | MBC [6]: >64 µg/mL | cytotoxicity towards HaCaT cells (HaCaT cells): did not exhibit cytotoxicity | MBC [7]: 16 µg/mL (≈ 3.64 µM) | MIC [8]: 0.5 µg/mL (≈ 0.114 µM) | MIC [9]: 2 µg/mL (≈ 0.455 µM) | MIC [10]: 4 µg/mL (≈ 0.909 µM) | MIC [11]: >64 µg/mL | MIC [12]: 4 µg/mL (≈ 0.909 µM) | MIC [13]: >64 µg/mL | MIC [14]: 16 µg/mL (≈ 3.64 µM) | hemolysis (mouse erythrocytes; [19]): no hemolysis | MBC (S. aureus ATCC 25923 [15]): 16 µg/mL (≈ 3.64 µM) | MBC (S. aureus CVCC 546 [16]): 4 µg/mL (≈ 0.909 µM) | MIC (S. aureus ATCC 25923 [17]): 16 µg/mL (≈ 3.64 µM) | MIC (S. aureus CVCC 546 [18]): 4 µg/mL (≈ 0.909 µM)

CC[C@H](C)[C@@H]1NC(=O)[C@H](CO)NC(=O)[C@H](CCCCN)NC(=O)[C@@H]2CSSC[C@@H](C(=O)N[C@@H](Cc3ccc(O)cc3)C(=O)O)NC(=O)[C@H](CCCCN)NC(=O)[C@@H]3CSSC[C@H](NC(=O)[C@H](CCCCN)NC(=O)[C@H](CCSC)NC(=O)[C@H](CC(=O)O)NC(=O)[C@H](CC(=O)O)NC(=O)[C@H](CCC(=O)O)NC(=O)[C@H](CC(N)=O)NC(=O)[C@H](Cc4c[nH]c5ccccc45)NC(=O)[C@@H]4CCCN4C(=O)CNC(=O)[C@H](CC(N)=O)NC(=O)[C@@H](NC(=O)CNC(=O)[C@H](Cc4ccccc4)NC(=O)CN)CSSC[C@H](NC(=O)[C@H](Cc4ccc(O)cc4)NC(=O)CNC(=O)CNC(=O)[C@H](CCCCN)NC(=O)[C@H](Cc4ccc(O)cc4)NC(=O)CNC(=O)[C@H](CCCCN)NC1=O)C(=O)N[C@@H](C)C(=O)N[C@@H](CCCCN)C(=O)NCC(=O)NCC(=O)N[C@@H](Cc1ccccc1)C(=O)N[C@@H](CC(C)C)C(=O)N3)C(=O)N[C@@H](Cc1c[nH]cn1)C(=O)N[C@@H](CC(N)=O)C(=O)N[C@@H](Cc1c[nH]cn1)C(=O)N2 [PPI45] (H-GFGCNGPWNEDDMKCHNHCKSIKGYKGGYCAKGGFLCKCY-OH; disulfide 4-30, 15-37, 19-39)
MBC [1]: 0.5 µg/mL (≈ 0.113 µM) | MBC [2]: 4 µg/mL (≈ 0.906 µM) | MBC [3]: 4 µg/mL (≈ 0.906 µM) | MBC [4]: >64 µg/mL | MBC [5]: 4 µg/mL (≈ 0.906 µM) | MBC [6]: >64 µg/mL | cytotoxicity towards HaCaT cells (HaCaT cells): did not exhibit cytotoxicity | MBC [7]: 16 µg/mL (≈ 3.62 µM) | MIC [8]: 0.5 µg/mL (≈ 0.113 µM) | MIC [9]: 1 µg/mL (≈ 0.226 µM) | MIC [10]: 4 µg/mL (≈ 0.906 µM) | MIC [11]: >64 µg/mL | MIC [12]: 4 µg/mL (≈ 0.906 µM) | MIC [13]: >64 µg/mL | MIC [14]: 16 µg/mL (≈ 3.62 µM) | hemolysis (mouse erythrocytes; [19]): no hemolysis | MBC (S. aureus ATCC 25923 [15]): 16 µg/mL (≈ 3.62 µM) | MBC (S. aureus CVCC 546 [16]): 4 µg/mL (≈ 0.906 µM) | MIC (S. aureus ATCC 25923 [17]): 16 µg/mL (≈ 3.62 µM) | MIC (S. aureus CVCC 546 [18]): 4 µg/mL (≈ 0.906 µM)

CC[C@H](C)[C@@H]1NC(=O)[C@H](CO)NC(=O)[C@H](CCCCN)NC(=O)[C@@H]2CSSC[C@@H](C(=O)N[C@@H](Cc3ccc(O)cc3)C(=O)O)NC(=O)[C@H](CCCCN)NC(=O)[C@@H]3CSSC[C@H](NC(=O)[C@H](CCCCN)NC(=O)[C@H](CCSC)NC(=O)[C@H](CC(=O)O)NC(=O)[C@H](CC(=O)O)NC(=O)[C@H](CCC(=O)O)NC(=O)[C@H](CO)NC(=O)[C@H](Cc4c[nH]c5ccccc45)NC(=O)[C@@H]4CCCN4C(=O)CNC(=O)[C@H](CC(N)=O)NC(=O)[C@@H](NC(=O)CNC(=O)[C@H](Cc4ccccc4)NC(=O)CN)CSSC[C@H](NC(=O)[C@H](Cc4ccc(O)cc4)NC(=O)CNC(=O)CNC(=O)[C@H](CCCCN)NC(=O)[C@H](Cc4ccc(O)cc4)NC(=O)CNC(=O)[C@H](CCCCN)NC1=O)C(=O)N[C@@H](C)C(=O)N[C@@H](CCCCN)C(=O)NCC(=O)NCC(=O)N[C@@H](Cc1ccccc1)C(=O)N[C@@H](CC(C)C)C(=O)N3)C(=O)N[C@@H](Cc1c[nH]cn1)C(=O)N[C@@H](CC(N)=O)C(=O)N[C@@H](Cc1c[nH]cn1)C(=O)N2 [PPI42, reference compound] (H-GFGCNGPWSEDDMKCHNHCKSIKGYKGGYCAKGGFLCKCY-OH; disulfide 4-30, 15-37, 19-39)
MBC [1]: 0.5 µg/mL (≈ 0.114 µM) | MBC [2]: 4 µg/mL (≈ 0.912 µM) | MBC [3]: 8 µg/mL (≈ 1.82 µM) | MBC [4]: >64 µg/mL | MBC [5]: 8 µg/mL (≈ 1.82 µM) | MBC [6]: >64 µg/mL | cytotoxicity towards HaCaT cells (HaCaT cells): growth-promoting effects | MBC [7]: 8 µg/mL (≈ 1.82 µM) | MIC [8]: 0.5 µg/mL (≈ 0.114 µM) | MIC [9]: 4 µg/mL (≈ 0.912 µM) | MIC [10]: 8 µg/mL (≈ 1.82 µM) | MIC [11]: >64 µg/mL | MIC [12]: 4 µg/mL (≈ 0.912 µM) | MIC [13]: >64 µg/mL | MIC [14]: 2 µg/mL (≈ 0.456 µM) | hemolysis (mouse erythrocytes; 2560 µg/mL): 10% | hemolysis (mouse erythrocytes; up to 1280 µg/mL): minimal hemolysis | MBC (S. aureus ATCC 25923 [15]): 16 µg/mL (≈ 3.65 µM) | MBC (S. aureus CVCC 546 [16]): 4 µg/mL (≈ 0.912 µM) | MIC (S. aureus ATCC 25923 [17]): 8 µg/mL (≈ 1.82 µM) | MIC (S. aureus CVCC 546 [18]): 2 µg/mL (≈ 0.456 µM)
